The nature of assay [1]: Ratio of inhibitory concentration against prostaglandin G/H synthase 1 to that of prostaglandin G/H synthase 2.
The target in assay [2] is T1, Prostaglandin G/H synthase 2 (Homo sapiens, UniProt P35354).
T1 sequence (P35354 whole entry): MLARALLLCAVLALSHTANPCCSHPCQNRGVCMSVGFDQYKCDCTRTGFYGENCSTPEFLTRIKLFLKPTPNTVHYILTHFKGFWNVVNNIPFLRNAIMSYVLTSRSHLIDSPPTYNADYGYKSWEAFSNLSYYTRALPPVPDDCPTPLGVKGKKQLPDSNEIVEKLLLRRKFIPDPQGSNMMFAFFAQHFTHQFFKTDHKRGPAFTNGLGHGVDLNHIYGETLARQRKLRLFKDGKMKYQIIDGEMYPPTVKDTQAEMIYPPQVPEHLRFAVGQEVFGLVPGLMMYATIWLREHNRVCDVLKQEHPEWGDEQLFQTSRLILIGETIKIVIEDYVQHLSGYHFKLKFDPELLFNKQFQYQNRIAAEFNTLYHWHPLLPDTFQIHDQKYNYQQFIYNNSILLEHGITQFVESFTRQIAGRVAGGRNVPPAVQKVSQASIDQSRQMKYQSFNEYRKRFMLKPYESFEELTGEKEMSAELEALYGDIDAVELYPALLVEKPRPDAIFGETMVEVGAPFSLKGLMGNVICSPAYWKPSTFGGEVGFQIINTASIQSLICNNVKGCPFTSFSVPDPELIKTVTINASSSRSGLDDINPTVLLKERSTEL
In words: In vitro inhibitory concentration against Prostaglandin G/H synthase 2 (COX-2).

A short description of assay [3]: In vitro inhibitory concentration against Prostaglandin G/H synthase 1 (COX-1).

We go through 14 compounds from ChEMBL document CHEMBL1143536, “QSAR analyses of conformationally restricted 1,5-diaryl pyrazoles as selective COX-2 inhibitors: application of connection table representation of ligands” (Bioorg Med Chem Lett, 2005).

Regarding `NS(=O)(=O)c1ccc(-n2nc(C(F)(F)F)c3c2-c2ccc(F)c(F)c2CS3)cc1`, the Ratio in assay [1] was found to be 2.58. Besides, the IC50 in assay [2] was 6.03 nM. For the same compound, the “Log IC50” value in assay [3] is recorded as -5.57.
Regarding `NS(=O)(=O)c1ccc(-n2nc(C(F)(F)F)c3c2-c2ccc(F)cc2CS3)cc1`, in assay [1], the Ratio stood at 0.84. For the same compound, the “Log IC50” value in assay [3] is -6.57.
On to `NS(=O)(=O)c1ccc(-n2nc(C(F)(F)F)c3c2-c2ccccc2SC3)cc1`, for which the “Log IC50” value in assay [3] is -5.01.
For `COc1ccc2c(c1F)CSc1c(C(F)(F)F)nn(-c3ccc(S(N)(=O)=O)cc3)c1-2`, the Ratio in assay [1] was determined as 2.48. Further, the IC50 in assay [2] is 8.91 nM. Further, in assay [3], the “Log IC50” value is reported as -5.56.
Consider `Cc1ccc2c(c1F)CSc1c(C(F)(F)F)nn(-c3ccc(S(N)(=O)=O)cc3)c1-2`, for which the Ratio in assay [1] was 2.84. In assay [2], this compound gave an IC50 of 15.8 nM. Further, the “Log IC50” value in assay [3] is listed as -4.95.
In the case of `NS(=O)(=O)c1ccc(-n2nc(C(F)(F)F)c3c2-c2ccccc2OC3)cc1`, the Ratio in assay [1] was found to be 0.72. For the same compound, in assay [3], the “Log IC50” value was -5.15.
In assay [2], `COc1ccc2c(c1F)CSc1c(C(F)(F)F)nn(-c3ccc(S(C)(=O)=O)cc3)c1-2` gave a half-inhibitory concentration (IC50) of 75.9 nM.
In turn, `COc1ccc2c(c1F)CSc1c(C(F)F)nn(-c3ccc(S(N)(=O)=O)cc3)c1-2` gave an IC50 in assay [2] of 32.4 nM.
The same measure, in the same setting: to `COc1ccc2c(c1F)C[S+]([O-])c1c(C(F)(F)F)nn(-c3ccc(S(N)(=O)=O)cc3)c1-2` (stereo not drawn) belongs 1510 nM.
In the case of `N#Cc1nn(-c2ccc(S(N)(=O)=O)cc2)c2c1SCc1cc(F)ccc1-2`, the Ratio in assay [1] turned out to be 0.7. Moreover, in assay [3], the “Log IC50” value is on record as -6.12.
The matching figures for `NS(=O)(=O)c1ccc(-n2nc(C(F)(F)F)c3c2-c2ccccc2CS3)cc1`: 1.3 and -6.4.
`NS(=O)(=O)c1ccc(-n2nc(C(F)(F)F)c3c2-c2cccc(F)c2CS3)cc1`: in assay [1], the Ratio amounted to 2.47. In assay [2], the IC50 is 20.9 nM. The “Log IC50” value in assay [3] is -5.2.
`Cc1ccc2c(c1)CSc1c(C(F)(F)F)nn(-c3ccc(S(N)(=O)=O)cc3)c1-2`: the Ratio in assay [1] came to 1.56. Further, the “Log IC50” value in assay [3] is recorded as -6.1.
For `COc1ccc2c(c1)CSc1c(C(F)(F)F)nn(-c3ccc(S(N)(=O)=O)cc3)c1-2`, in assay [1], the Ratio was 1.36. Further, in assay [3], the “Log IC50” value is reported as -6.52.
